Test results: PubChem BioAssay (NCI)
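Grown in 96-well plates, cells were treated for 48 hours with each compound at five concentrations. Insufficient inhibition: endpoint recorded as highest concentration tested. GI50 is the concentration that inhibits growth by half. TGI marks complete inhibition of growth.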 Calls of active or inactive are those of the source. Cut-off read from the data, not from the text of the source: active = GI50 below about 0.43 µM; inactive = the rest.

Assays:
Assay in all cases: NCI tumour cell line growth inhibition, 48 h
SNB-19 CNS = test system: SNB-19 CNS
NCI/ADR-RES ovarian = test system: NCI/ADR-RES ovarian
HCC-2998 colon = test system: HCC-2998 colon
HT29 colon = test system: HT29 colon
M19-MEL melanoma = test system: M19-MEL melanoma
UO-31 renal = test system: UO-31 renal
BT-549 breast = test system: BT-549 breast
NCI-H226 lung = test system: NCI-H226 lung
NCI-H23 lung = test system: NCI-H23 lung
HCT-116 colon = test system: HCT-116 colon
COLO 205 colon = test system: COLO 205 colon
HOP-62 NSCLC = test system: HOP-62 NSCLC
EKVX NSCLC = test system: EKVX NSCLC
HOP-92 NSCLC = test system: HOP-92 NSCLC
UACC-257 melanoma = test system: UACC-257 melanoma
OVCAR-3 ovarian = test system: OVCAR-3 ovarian
DLD-1 colon = test system: DLD-1 colon
SF-268 CNS = test system: SF-268 CNS
SK-MEL-28 melanoma = test system: SK-MEL-28 melanoma
A498 renal = test system: A498 renal
NCI-H460 lung = test system: NCI-H460 lung
MALME-3M melanoma = test system: MALME-3M melanoma
SNB-75 CNS = test system: SNB-75 CNS
KM12 colon = test system: KM12 colon
DMS 273 small cell lung = test system: DMS 273 small cell lung
TK-10 renal = test system: TK-10 renal
MDA-MB-231 breast = test system: MDA-MB-231 breast
ACHN renal = test system: ACHN renal
OVCAR-8 ovarian = test system: OVCAR-8 ovarian
SN12C renal = test system: SN12C renal
SNB-78 CNS = test system: SNB-78 CNS
HCT-15 colon = test system: HCT-15 colon
SF-295 CNS = test system: SF-295 CNS
SK-OV-3 ovarian = test system: SK-OV-3 ovarian
NCI-H522 lung = test system: NCI-H522 lung
SR leukemia = test system: SR leukemia
LOX IMVI melanoma = test system: LOX IMVI melanoma
HL-60(TB) leukemia = test system: HL-60(TB) leukemia
SF-539 CNS = test system: SF-539 CNS
A549 NSCLC = test system: A549 NSCLC
PC-3 prostate = test system: PC-3 prostate
LXFL 529 NSCLC = test system: LXFL 529 NSCLC
DU-145 prostate = test system: DU-145 prostate
MCF7 breast = test system: MCF7 breast
MOLT-4 leukemia = test system: MOLT-4 leukemia
786-0 renal = test system: 786-0 renal
SK-MEL-2 melanoma = test system: SK-MEL-2 melanoma
KM20L2 colon = test system: KM20L2 colon
M14 melanoma = test system: M14 melanoma
OVCAR-4 ovarian = test system: OVCAR-4 ovarian

`C[CH2][Sn]([CH2]C)([O]C(=O)c1ccccc1F)[O]C(=O)c1ccccc1F` gave a GI50 (SNB-19 CNS) of 36.6 µM, a TGI (SNB-19 CNS) of 60.6 µM and a GI50 (NCI/ADR-RES ovarian) of over 100 µM. It also gave a TGI (NCI/ADR-RES ovarian) of over 100 µM, a GI50 (HCC-2998 colon) of over 100 µM and a TGI (HCC-2998 colon) of over 100 µM. For the same molecule, the GI50 (HT29 colon) was 59.2 µM, the TGI (HT29 colon) was over 100 µM and the GI50 (M19-MEL melanoma) was 29.8 µM. It also gave a TGI (M19-MEL melanoma) of over 77.2 µM, a GI50 (UO-31 renal) of over 55.2 µM and a TGI (UO-31 renal) of over 67.3 µM. For the same molecule, the GI50 (BT-549 breast) was 18.1 µM, the TGI (BT-549 breast) was 35.8 µM and the GI50 (NCI-H226 lung) was 14.7 µM. It also gave a TGI (NCI-H226 lung) of 22.1 µM, a GI50 (NCI-H23 lung) of 22.6 µM and a TGI (NCI-H23 lung) of 45 µM. For the same molecule, the GI50 (HCT-116 colon) was over 69.8 µM, the TGI (HCT-116 colon) was over 100 µM and the GI50 (COLO 205 colon) was 38.8 µM. The TGI (COLO 205 colon) was 62.3 µM, the GI50 (HOP-62 NSCLC) was over 100 µM and the TGI (HOP-62 NSCLC) was over 100 µM. It also gave a GI50 (EKVX NSCLC) of over 100 µM, a TGI (EKVX NSCLC) of over 100 µM and a GI50 (HOP-92 NSCLC) of 18 µM. The TGI (HOP-92 NSCLC) was 37.7 µM, the GI50 (UACC-257 melanoma) was 32 µM and the TGI (UACC-257 melanoma) was over 46.4 µM. For the same molecule, the GI50 (OVCAR-3 ovarian) was over 100 µM, the TGI (OVCAR-3 ovarian) was over 100 µM and the GI50 (DLD-1 colon) was 29.8 µM. For the same molecule, the TGI (DLD-1 colon) was over 91.3 µM, the GI50 (SF-268 CNS) was 32.1 µM and the TGI (SF-268 CNS) was 50.8 µM. The GI50 (SK-MEL-28 melanoma) was 29.1 µM, the TGI (SK-MEL-28 melanoma) was 47.6 µM and the GI50 (A498 renal) was 18.5 µM. The TGI (A498 renal) was 35.5 µM, the GI50 (NCI-H460 lung) was over 100 µM and the TGI (NCI-H460 lung) was over 100 µM. For the same molecule, the GI50 (MALME-3M melanoma) was 16.5 µM, the TGI (MALME-3M melanoma) was 31.4 µM and the GI50 (SNB-75 CNS) was 21.7 µM. It also gave a TGI (SNB-75 CNS) of over 53.4 µM, a GI50 (KM12 colon) of over 100 µM and a TGI (KM12 colon) of over 100 µM. For the same molecule, the GI50 (DMS 273 small cell lung) was over 67 µM, the TGI (DMS 273 small cell lung) was over 100 µM and the GI50 (TK-10 renal) was 18.1 µM. For the same molecule, the TGI (TK-10 renal) was 33.4 µM, the GI50 (MDA-MB-231 breast) was over 100 µM and the TGI (MDA-MB-231 breast) was over 100 µM. For the same molecule, the GI50 (ACHN renal) was 32.7 µM, the TGI (ACHN renal) was 48.3 µM and the GI50 (OVCAR-8 ovarian) was over 70.5 µM. The TGI (OVCAR-8 ovarian) was over 100 µM, the GI50 (SN12C renal) was over 75 µM and the TGI (SN12C renal) was over 100 µM. It also gave a GI50 (SNB-78 CNS) of 20.6 µM, a TGI (SNB-78 CNS) of 39 µM and a GI50 (HCT-15 colon) of 29 µM. It also gave a TGI (HCT-15 colon) of over 67.7 µM, a GI50 (SF-295 CNS) of over 62 µM and a TGI (SF-295 CNS) of over 84.6 µM. For the same molecule, the GI50 (SK-OV-3 ovarian) was over 100 µM, the TGI (SK-OV-3 ovarian) was over 100 µM and the GI50 (NCI-H522 lung) was 2.1 µM. The TGI (NCI-H522 lung) was 6.84 µM, the GI50 (SR leukemia) was 22.6 µM and the TGI (SR leukemia) was over 100 µM. For the same molecule, the GI50 (LOX IMVI melanoma) was 19.2 µM, the TGI (LOX IMVI melanoma) was 40.8 µM and the GI50 (HL-60(TB) leukemia) was over 45.2 µM. It also gave a TGI (HL-60(TB) leukemia) of over 100 µM, a GI50 (SF-539 CNS) of 23.2 µM and a TGI (SF-539 CNS) of 29.4 µM. The GI50 (A549 NSCLC) was over 100 µM, the TGI (A549 NSCLC) was over 100 µM and the GI50 (PC-3 prostate) was over 100 µM. It also gave a TGI (PC-3 prostate) of over 100 µM, a GI50 (LXFL 529 NSCLC) of 11.1 µM and a TGI (LXFL 529 NSCLC) of 24.2 µM. It also gave a GI50 (DU-145 prostate) of over 100 µM, a TGI (DU-145 prostate) of over 100 µM and a GI50 (MCF7 breast) of 27.4 µM. For the same molecule, the TGI (MCF7 breast) was 80.6 µM, the GI50 (MOLT-4 leukemia) was 28.8 µM and the TGI (MOLT-4 leukemia) was over 91 µM. It also gave a GI50 (786-0 renal) of 33.3 µM, a TGI (786-0 renal) of over 69.3 µM and a GI50 (SK-MEL-2 melanoma) of 15.8 µM. The TGI (SK-MEL-2 melanoma) was 28.1 µM, the GI50 (KM20L2 colon) was over 83.8 µM and the TGI (KM20L2 colon) was over 100 µM. The GI50 (M14 melanoma) was 30.4 µM, the TGI (M14 melanoma) was 56.8 µM and the GI50 (OVCAR-4 ovarian) was over 100 µM. For the same molecule, the TGI (OVCAR-4 ovarian) was over 100 µM.

With `C=CC(=O)C#CC#CC/C=C\CCCCCCC` the TGI (SNB-19 CNS) was over 20.6 µM, the outcome (SNB-19 CNS) was “inactive” and the TGI (NCI/ADR-RES ovarian) was over 20.6 µM. For the same molecule, the outcome (NCI/ADR-RES ovarian) was “inactive”, the TGI (HCC-2998 colon) was over 20.6 µM and the outcome (HCC-2998 colon) was “inactive”. For the same molecule, the TGI (HT29 colon) was over 20.6 µM, the outcome (HT29 colon) was “inactive” and the TGI (M19-MEL melanoma) was over 20.6 µM. For the same molecule, the TGI (UO-31 renal) was over 20.6 µM, the outcome (UO-31 renal) was “inactive” and the TGI (BT-549 breast) was over 20.6 µM. The TGI (NCI-H226 lung) was over 20.6 µM, the outcome (NCI-H226 lung) was “inactive” and the TGI (NCI-H23 lung) was over 20.6 µM. For the same molecule, the outcome (NCI-H23 lung) was “inactive”, the TGI (HCT-116 colon) was over 20.6 µM and the outcome (HCT-116 colon) was “inactive”. For the same molecule, the TGI (COLO 205 colon) was over 20.6 µM, the outcome (COLO 205 colon) was “inactive” and the TGI (HOP-62 NSCLC) was over 20.6 µM. The outcome (HOP-62 NSCLC) was “inactive”, the TGI (EKVX NSCLC) was over 20.6 µM and the outcome (EKVX NSCLC) was “inactive”. The TGI (HOP-92 NSCLC) was over 20.6 µM, the TGI (UACC-257 melanoma) was over 20.6 µM and the outcome (UACC-257 melanoma) was “inactive”. The TGI (OVCAR-3 ovarian) was over 20.6 µM, the outcome (OVCAR-3 ovarian) was “inactive” and the TGI (DLD-1 colon) was over 20.6 µM. The TGI (SF-268 CNS) was over 20.6 µM, the outcome (SF-268 CNS) was “inactive” and the TGI (SK-MEL-28 melanoma) was over 20.6 µM. For the same molecule, the outcome (SK-MEL-28 melanoma) was “inactive”, the TGI (A498 renal) was over 20.6 µM and the outcome (A498 renal) was “inactive”. For the same molecule, the TGI (NCI-H460 lung) was over 20.6 µM, the outcome (NCI-H460 lung) was “inactive” and the TGI (MALME-3M melanoma) was over 20.6 µM. The outcome (MALME-3M melanoma) was “inactive”, the TGI (SNB-75 CNS) was over 20.6 µM and the outcome (SNB-75 CNS) was “inactive”. The TGI (KM12 colon) was over 20.6 µM, the outcome (KM12 colon) was “inactive” and the TGI (DMS 273 small cell lung) was over 20.6 µM. The TGI (TK-10 renal) was over 20.6 µM, the outcome (TK-10 renal) was “inactive” and the TGI (MDA-MB-231 breast) was over 20.6 µM. For the same molecule, the outcome (MDA-MB-231 breast) was “inactive”, the TGI (ACHN renal) was over 20.6 µM and the outcome (ACHN renal) was “inactive”. For the same molecule, the TGI (OVCAR-8 ovarian) was over 20.6 µM, the outcome (OVCAR-8 ovarian) was “inactive” and the TGI (SN12C renal) was over 20.6 µM. The outcome (SN12C renal) was “inactive”, the TGI (SNB-78 CNS) was over 20.6 µM and the TGI (HCT-15 colon) was over 20.6 µM. For the same molecule, the outcome (HCT-15 colon) was “inactive”, the TGI (SF-295 CNS) was over 20.6 µM and the outcome (SF-295 CNS) was “inactive”. For the same molecule, the TGI (SK-OV-3 ovarian) was over 20.6 µM, the outcome (SK-OV-3 ovarian) was “inactive” and the TGI (NCI-H522 lung) was over 20.6 µM. The outcome (NCI-H522 lung) was “inactive”, the TGI (SR leukemia) was 14.2 µM and the outcome (SR leukemia) was “inactive”. For the same molecule, the TGI (LOX IMVI melanoma) was over 20.6 µM, the outcome (LOX IMVI melanoma) was “inactive” and the TGI (HL-60(TB) leukemia) was over 20.6 µM. For the same molecule, the outcome (HL-60(TB) leukemia) was “inactive”, the TGI (SF-539 CNS) was over 20.6 µM and the outcome (SF-539 CNS) was “inactive”. For the same molecule, the TGI (A549 NSCLC) was over 20.6 µM, the outcome (A549 NSCLC) was “inactive” and the outcome (PC-3 prostate) was “inactive”. The TGI (LXFL 529 NSCLC) was over 20.6 µM, the TGI (DU-145 prostate) was over 20.6 µM and the outcome (DU-145 prostate) was “inactive”. The TGI (MCF7 breast) was over 20.6 µM, the outcome (MCF7 breast) was “inactive” and the TGI (MOLT-4 leukemia) was 12.3 µM. For the same molecule, the outcome (MOLT-4 leukemia) was “inactive”, the TGI (786-0 renal) was over 18.4 µM and the outcome (786-0 renal) was “inactive”. The TGI (SK-MEL-2 melanoma) was over 20.6 µM, the outcome (SK-MEL-2 melanoma) was “inactive” and the TGI (KM20L2 colon) was over 20.6 µM. For the same molecule, the TGI (M14 melanoma) was over 20.6 µM, the outcome (M14 melanoma) was “inactive” and the TGI (OVCAR-4 ovarian) was over 20.6 µM. The outcome (OVCAR-4 ovarian) was “inactive”.
